Results as given in US5736529A, “Use of NAD-related compounds in the treatment of neural trauma to inhibit neurodegeneration” (priority 1996, dated 1998).

What was measured:
DNA = assay: EPR detection of radicals on mixing DNA and tBuOOH in the presence of DMPO
Excerpt: Therefore, DNA fragmentation is produced following HO. and other radicals induced DNA damage. Necrotic degeneration probably occurs within the first few hours after tBuOOH administration.

[1] = HPLC determination of tBuOOH in mice brains (pharmacokinetic profile); type: in vivo, mouse (male C57BL/6)
Method: Male C57BL/6 mice, 8 months old, were treated ICV with 110 mg/kg of tBuOOH. At various times, brains were removed, dissected and frozen on dry ice. Later the brains were homogenized in acetonitrile and centrifuged for 5 minutes at 12,000 g.

apoptotic cells in brain = conditions: 21.9 mg/kg ICV; 48 hours; most abundant in thalamus and pons
Method: The purpose of the apoptosis staining was to identify individual cells that may have undergone apoptosis. Residues of digoxigenin nucleotide were added to the DNA by an enzyme terminal deoxynucleotidyl transferase (TdT) which catalyzes the addition of deoxyribonucleotide triphosphate to the 3'-OH end of single and double stranded DNA. Thus the targets for labeling are the numerous new 3'-OH DNA ends generated by DNA fragmentation, easily observable in morphologically identifiable nuclei and apoptotic bodies. The sections were then incubated with an antibody to digoxigenin residues. The antibody was coupled to peroxidase allowing visualization with 3,3'-diaminobenzidine. Other sections were stained with cresyl violet.
A dose of 21.9 mg/kg of tBuOOH was administered ICV to C57BL/6 mice. The mice were anesthetized 48 hours after the tBuOOH administration and perfused through the left cardiac ventricle with 0.175M sodium phosphate and 0.155M sodium chloride (pH 7.5, PBS), then with 4% formaldehyde and 0.2% glutaraldehyde in PBS for six minutes with each solution at room temperature. The brains were then removed from the cranium after 2 hours of fixation and sliced coronally into 50μ sections with a vibrating microtome.
In order to detect individual cells undergoing apoptosis, the In Situ Apoptosis Detection Kit, (Oncor, Gaithersburg, Md.) was used. […]

[2] = system: DNA in brain sections of C57BL/6 mice; assay: DNA fragmentation in brain regions upon treatment with tBuOOH (Tables 1 and 2); type: in vivo, mouse (C57BL/6); conditions: for Fraction of damaged DNA, Cerebellum / Fraction of damaged DNA, Cortex / Fraction of damaged DNA, Hippo / Fraction of damaged DNA, Midbrain / Fraction of damaged DNA, Striatum / Fraction of damaged DNA, Thalamus: mean ± SD
Method: In general male C57BL/6 mice (2, 8 or 24 months old) were anesthetized with ketamine and xylazine (200 and 2 mg/kg, ip). They were injected ICV with tBuOOH in doses of approximately 22 or 110 mg/kg. This amounts to 1 or 5 μl of a 70% solution of tBuOOH injected slowly into a lateral cerebral ventricle. A mouse brain weighs about 400 mg. […] Animals recovered from anesthesia about 30 minutes or so after tBuOOH administration. […] Low dose mice survived for 48 hours or more.
Young adult (2 month old) and mature (8 month old) C57BL/6 mice were divided into 7 groups with 8 animals in the control group and 4 animals in each of the other groups for both the age groups. A dose of 109.7 mg/kg of tBuOOH was administered ICV, to three groups of mice of both age groups. See Tables 1 and 2. tBuOOH was injected ICV following the technique described in Popick^2. The experiments ended 2 minutes, 5 minutes and 20 minutes after injection of tBuOOH. In the second set of experiments, 21.9 mg/kg of the toxin was administered ICV in the other three groups of mice with experimental durations of 12 hours, 24 hours and 48 hours respectively. The controls were treated with saline rather than tBuOOH.
The brains were removed after the allotted time period and sectioned immediately into the following sections: cortex, striatum, hippocampus, thalamus, midbrain and cerebellum.

DNA in brain of mice = type: in vivo, mouse (8 month old C47BL/6); conditions: 21.9 mg/kg t-BuOOH ICV; 48 hours; 8 month old mice
Method: A gel electrophoresis was performed to investigate whether the DNA fragmentation that is observed at the end of 48 hours is due to apoptosis or not (FIG. 7). 8 month old C47BL/6 mice were treated with ICV with 21.9 mg/kg t-BuOOH 48 hours prior to removal of the brains. Brains were added to lysing buffer and centrifuged. The supernatants were collected as in the DNA fragmentation assay. The samples were extracted with an equal volume of phenol/chloroform/isoamyl alcohol (25:24:1). The DNA in the aqueous phase was precipitated by adding an equal volume of 100% ethanol and maintained at -20° C. overnight. DNA was collected by centrifugation at 12,000 g for 25 minutes, air dried and resuspended in TBE buffer (90 mM Tris, 90 mM boric acid and 2 mM EDTA, pH 8.0). Horizontal electrophoresis was performed for 2 hours at 100 volts in a 0.75% agarose gel with TBE buffer. The gel was stained with ethidium bromide and photographed by UV transillumination.

catalase = conditions: cited from earlier work
glutathione peroxidase = conditions: cited from earlier work
[3] = 2 month old mice, 21.9 mg/kg ICV, 12 hours
[4] = 2 month old mice, 21.9 mg/kg ICV, 24 hours
[5] = 2 month old mice, 21.9 mg/kg ICV, 48 hours
[6] = 2 month old mice, 109.7 mg/kg ICV, 2 min
[7] = 2 month old mice, 109.7 mg/kg ICV, 2 min, * p<0.05 vs control
[8] = 2 month old mice, 109.7 mg/kg ICV, 5 min
[9] = 2 month old mice, 109.7 mg/kg ICV, 20 min
[10] = 2 month old mice, 109.7 mg/kg ICV, 20 min, * p<0.05 vs control
[11] = 8 month old mice, 21.9 mg/kg ICV, 12 hours
[12] = 8 month old mice, 21.9 mg/kg ICV, 24 hours
[13] = 8 month old mice, 21.9 mg/kg ICV, 48 hours
[14] = 8 month old mice, 109.7 mg/kg ICV, 2 min
[15] = 8 month old mice, 109.7 mg/kg ICV, 5 min
[16] = 8 month old mice, 109.7 mg/kg ICV, 20 min
[17] = 8 month old mice, 109.7 mg/kg ICV, 20 min, * p<0.05 vs control

CC(C)(C)OO [tBuOOH, t-butylhydroperoxide]
radicals produced by mixing DNA and tBuOOH (DNA): produces HO. and other radicals | toxin concentration relative to the initial concentration within 5 minutes ([1]; 110 mg/kg ICV, 8 month old mice): less than 50% | tBuOOH concentration curve in 2 month old mice ([1]; compared with 8 month old mice): virtually identical curve | concentration at 10 min ([1]; mouse, brain, icv or intrathecal, 110 mg/kg ICV, 8 month old mice): ~1000 µM | half-life ([1]; mouse, icv or intrathecal, 110 mg/kg ICV, depending on the brain region): 4 to 20 min | clearance of tBuOOH from the brain ([1]; striatum of 8 month old mice, 110 mg/kg ICV): very rapid clearance of tBuOOH from the brain in the initial period, followed by a slower clearance | apoptotic cells in the brain (apoptotic cells in brain): Apoptotic cells were found in many brain regions, but were most abundant in the thalamus and pons | effect on cortex DNA ([2]; 2 and 8 month old mice, high or low dose): not affected | DNA damage in all other brain sections ([2]; 2 and 8 month old mice, high or low dose or both): some vulnerability | Fraction of damaged DNA, Cerebellum [2, 3]: 0.65 ± 0.19 per gram of tissue | Fraction of damaged DNA, Cortex [2, 3]: 0.53 ± 0.16 per gram of tissue | Fraction of damaged DNA, Hippo [2, 3]: 0.40 ± 0.16 per gram of tissue | Fraction of damaged DNA, Midbrain [2, 3]: 0.83 ± 0.58 per gram of tissue | Fraction of damaged DNA, Striatum [2, 3]: 1.13 ± 0.49 per gram of tissue | Fraction of damaged DNA, Thalamus [2, 3]: 1.29 ± 0.39 per gram of tissue | Fraction of damaged DNA, Cerebellum [2, 4]: 0.93 ± 0.36 per gram of tissue | Fraction of damaged DNA, Cortex [2, 4]: 0.47 ± 0.13 per gram of tissue | Fraction of damaged DNA, Hippo [2, 4]: 0.31 ± 0.04 per gram of tissue | Fraction of damaged DNA, Midbrain [2, 4]: 1.23 ± 0.12 per gram of tissue | Fraction of damaged DNA, Striatum [2, 4]: 1.16 ± 0.31 per gram of tissue | Fraction of damaged DNA, Thalamus [2, 4]: 1.44 ± 0.76 per gram of tissue | Fraction of damaged DNA, Cortex [2, 5]: 0.73 ± 0.03 per gram of tissue | Fraction of damaged DNA, Hippo [2, 5]: 0.50 ± 0.09 per gram of tissue | Fraction of damaged DNA, Midbrain [2, 5]: 1.24 ± 0.13 per gram of tissue | Fraction of damaged DNA, Striatum [2, 5]: 1.66 ± 0.33 per gram of tissue | Fraction of damaged DNA, Thalamus [2, 5]: 1.25 ± 0.14 per gram of tissue | Fraction of damaged DNA, Cerebellum ([2]; 2 month old mice, 21.9 mg/kg ICV, 48 hours, * p<0.05 vs control, 1 p<0.05 vs other age group): 1.29 ± 0.12 per gram of tissue | significant damage in the hippocampus ([2]; 2 month old mice, 109.7 mg/kg): significant damage was seen 2 minutes and 20 minutes after injection | Fraction of damaged DNA, Cerebellum [2, 6]: 1.17 ± 0.25 per gram of tissue | Fraction of damaged DNA, Cortex [2, 6]: 0.84 ± 0.33 per gram of tissue | Fraction of damaged DNA, Striatum [2, 6]: 2.00 ± 0.45 per gram of tissue | Fraction of damaged DNA, Hippo [2, 7]: 0.66 ± 0.09 per gram of tissue | Fraction of damaged DNA, Midbrain [2, 7]: 2.48 ± 1.02 per gram of tissue | Fraction of damaged DNA, Thalamus [2, 7]: 2.66 ± 0.33 per gram of tissue | Fraction of damaged DNA, Cerebellum [2, 8]: 0.88 ± 0.20 per gram of tissue | Fraction of damaged DNA, Cortex [2, 8]: 0.82 ± 0.23 per gram of tissue | Fraction of damaged DNA, Hippo [2, 8]: 0.41 ± 0.05 per gram of tissue | Fraction of damaged DNA, Midbrain [2, 8]: 1.71 ± 0.77 per gram of tissue | Fraction of damaged DNA, Striatum [2, 8]: 1.66 ± 0.52 per gram of tissue | Fraction of damaged DNA, Thalamus ([2]; 2 month old mice, 109.7 mg/kg ICV, 5 min, * p<0.05 vs control): 2.85 ± 0.83 per gram of tissue | Fraction of damaged DNA, Cortex [2, 9]: 0.76 ± 0.26 per gram of tissue | Fraction of damaged DNA, Thalamus [2, 9]: 2.46 ± 0.65 per gram of tissue | Fraction of damaged DNA, Cerebellum [2, 10]: 1.39 ± 0.51 per gram of tissue | Fraction of damaged DNA, Hippo [2, 10]: 0.66 ± 0.14 per gram of tissue | Fraction of damaged DNA, Midbrain [2, 10]: 3.09 ± 0.28 per gram of tissue | Fraction of damaged DNA, Striatum [2, 10]: 2.56 ± 0.49 per gram of tissue | hippocampus damage at 5 minutes compared with other age group ([2]; 2 month old vs 8 month old mice, 109.7 mg/kg): significantly lower | significant damage in the cerebellum, early ([2]; 8 month old mice after 5 and 20 minutes, 2 month old mice after 20 minutes): Significant damage was observed after 5 minutes and 20 minutes, in the case of the 8 month old cerebellum and after 20 minutes in the 2 month old cerebellum | Fraction of damaged DNA, Cerebellum [2, 11]: 0.69 ± 0.15 per gram of tissue | Fraction of damaged DNA, Cortex [2, 11]: 0.61 ± 0.10 per gram of tissue | Fraction of damaged DNA, Hippo [2, 11]: 0.46 ± 0.17 per gram of tissue | Fraction of damaged DNA, Midbrain [2, 11]: 0.76 ± 0.24 per gram of tissue | Fraction of damaged DNA, Striatum [2, 11]: 1.17 ± 0.33 per gram of tissue | Fraction of damaged DNA, Thalamus [2, 11]: 1.08 ± 0.30 per gram of tissue | Fraction of damaged DNA, Cerebellum [2, 12]: 0.67 ± 0.16 per gram of tissue | Fraction of damaged DNA, Cortex [2, 12]: 0.65 ± 0.13 per gram of tissue | Fraction of damaged DNA, Hippo [2, 12]: 0.46 ± 0.05 per gram of tissue | Fraction of damaged DNA, Midbrain [2, 12]: 1.05 ± 0.35 per gram of tissue | Fraction of damaged DNA, Striatum [2, 12]: 0.99 ± 0.06 per gram of tissue | Fraction of damaged DNA, Thalamus [2, 12]: 0.75 ± 0.27 per gram of tissue | Fraction of damaged DNA, Cortex [2, 13]: 0.69 ± 0.10 per gram of tissue | Fraction of damaged DNA, Hippo [2, 13]: 0.55 ± 0.06 per gram of tissue | Fraction of damaged DNA, Midbrain [2, 13]: 1.05 ± 0.13 per gram of tissue | Fraction of damaged DNA, Striatum [2, 13]: 1.15 ± 0.12 per gram of tissue | Fraction of damaged DNA, Thalamus [2, 13]: 1.65 ± 0.13 per gram of tissue | Fraction of damaged DNA, Cerebellum ([2]; 8 month old mice, 21.9 mg/kg ICV, 48 hours, * p<0.05 vs control): 1.01 ± 0.11 per gram of tissue | significant damage in the hippocampus ([2]; 8 month old mice, 109.7 mg/kg): significant damage was seen within 5 minutes | Fraction of damaged DNA, Cerebellum [2, 14]: 0.80 ± 0.09 per gram of tissue | Fraction of damaged DNA, Cortex [2, 14]: 0.87 ± 0.17 per gram of tissue | Fraction of damaged DNA, Hippo [2, 14]: 0.69 ± 0.14 per gram of tissue | Fraction of damaged DNA, Midbrain [2, 14]: 2.24 ± 0.66 per gram of tissue | Fraction of damaged DNA, Striatum [2, 14]: 1.56 ± 0.27 per gram of tissue | Fraction of damaged DNA, Thalamus ([2]; 8 month old mice, 109.7 mg/kg ICV, 2 min, * p<0.05 vs control): 2.29 ± 0.78 per gram of tissue | Fraction of damaged DNA, Cortex [2, 15]: 0.67 ± 0.16 per gram of tissue | Fraction of damaged DNA, Midbrain [2, 15]: 1.93 ± 0.26 per gram of tissue | Fraction of damaged DNA, Striatum [2, 15]: 1.63 ± 0.47 per gram of tissue | Fraction of damaged DNA, Thalamus [2, 15]: 1.86 ± 0.58 per gram of tissue | Fraction of damaged DNA, Cerebellum ([2]; 8 month old mice, 109.7 mg/kg ICV, 5 min, * p<0.05 vs control): 1.15 ± 0.12 per gram of tissue | Fraction of damaged DNA, Hippo ([2]; 8 month old mice, 109.7 mg/kg ICV, 5 min, * p<0.05 vs control, 1 p<0.05 vs other age group): 0.81 ± 0.20 per gram of tissue | Fraction of damaged DNA, Cortex [2, 16]: 0.70 ± 0.19 per gram of tissue | Fraction of damaged DNA, Hippo [2, 16]: 0.67 ± 0.15 per gram of tissue | Fraction of damaged DNA, Cerebellum [2, 17]: 1.46 ± 0.36 per gram of tissue | Fraction of damaged DNA, Midbrain [2, 17]: 2.98 ± 0.85 per gram of tissue | Fraction of damaged DNA, Striatum [2, 17]: 2.38 ± 0.41 per gram of tissue | Fraction of damaged DNA, Thalamus [2, 17]: 2.77 ± 0.30 per gram of tissue | significant DNA damage in the thalamus ([2]; both age groups): significant DNA damage was found after 2 minutes | significant damage in the midbrain ([2]; both age groups): significant damage was found after 20 minutes | significant damage in the cerebellum at 48 hours ([2]; both age groups, 2 month old significantly greater than 8 month old): significant damage was observed in the cerebellum at the end of 48 hours | significant DNA damage in the striatum ([2]; both age groups, high dose): significant DNA damage was found only after 20 minutes | DNA fragments on gel electrophoresis (DNA in brain of mice): Oligosomal sized DNA fragments were observed along with a smear of fragmentation | substrate for catalase (catalase): not a substrate for catalase | detoxification by glutathione peroxidase (glutathione peroxidase): detoxified by glutathione peroxidase
